Measurements: patent US10441578B2, “Altering expression level of glutathione S-transferase genes by treating a human subject with a nitroxide” (priority 2018, dated 2019)

Legend:
Assay type in all cases: in vivo
[1] = system: Gstm3, Gstm6, Gsta3, Gstt1, Gsta4, Gstm1, Gstm4, Gstt2, Gstp1, or Gstk1; experiment: Treatment of a human subject with a nitroxide antioxidant, serum level of GST; settings: 1500 mg per day for 180 days
Experimental: (§1) A 70-kilogram human subject over the age of 65 is identified for decreased expression level of Gstm3, Gstm6, Gsta3, Gstt1, Gsta4, Gstm1, Gstm4, Gstt2, Gstp1, or Gstk1. The human subject is administered a dose of 1500 mg of a nitroxide antioxidant (e.g., Tempol) per day for 180 days. This may be administered in a single dose, or may be administered as a number of smaller doses over a 24-hour period: for example, three 500-mg doses at eight-hour intervals. Following treatment, the serum level of Gstm3, Gstm6, Gsta3, Gstt1, Gsta4, Gstm1, Gstm4, Gstt2, Gstp1, or Gstk1, is increased.
as §1, with “65 and having a cardiovascular disease” for “65”
as §1, with “subject” for “subject over the age of 65”
as §1, with “subject” for “subject over the age of 65”, “Gstk1 that is associated with a disease (e.g., caused by or causing a disease).” for “Gstk1.”
as §1, with “at risk” for “over the age”, “developing a cancer (e.g., colorectal cancer) or having a cancer” for “65”
as §1, with “at risk” for “over the age”, “developing or having an autoimmune disease (e.g., rheumatoid arthritis)” for “65”
A 70-kilogram human subject of person at risk of developing, or having, a condition due to aging is identified. The human subject is administered a dose of 1500 mg of a nitroxide antioxidant (e.g., Tempol) per day for 180 days. […]

[2] = system: Glutathione S-transferase, alpha 4 (Gsta4); experiment: Microarray gene expression in white adipose tissue of Tempol-fed mice
Experimental: (§2) To assess the effects of Tempol on gene expression, Tempol was administered to experimental mice at a dose of 5 mg/g of food from 14 months to 31 months after birth. Mice receiving the same food without the addition of Tempol were used as a negative control. At the age of 31 months, the experimental animals were sacrificed and the hearts were surgically removed. The expression of a broad spectrum of genes in white adipose tissue tissue was assessed using chip-based microarray technology. Such chips are well known in the art and are widely used to assess gene expression.

[3] = system: Glutathione S-transferase, mu 4 (Gstm4); experiment: as above
Experimental: as §2

[4] = system: Glutathione S-transferase kappa1 (Gstk1); experiment: as above
Experimental: as §2

[5] = system: Glutathione S-transferase, mu 1 (Gstm1); experiment: as above
Experimental: as §2

[6] = system: Glutathione S-transferase, theta 2 (Gstt2); experiment: as above
Experimental: as §2

[7] = system: Glutathione S-transferase, alpha 3 (Gsta3); experiment: as above
Experimental: as §2

[8] = system: Glutathione S-transferase, theta 1 (Gstt1); experiment: as above
Experimental: as §2

[9] = system: Glutathione S-transferase, mu 6 (Gstm6); experiment: as above
Experimental: as §2

[10] = system: Glutathione S-transferase, pi 1 (Gstp1); experiment: as above
Experimental: as §2

[11] = system: Glutathione S-transferase, mu 3 (Gstm3); experiment: as above
Experimental: as §2

[12] = Tempol-treated vs control mice, microarray
[13] = Tempol-treated vs control mice, P-value 0.003
[14] = Tempol-treated vs control mice, P-value 0.001

Structure (SMILES): CC1(C)CC(O)CC(C)(C)N1[O] [Tempol, 4-hydroxy-2,2,6,6-tetramethylpiperidine-1-oxyl]
- Serum level of GST following treatment ([1]; Example 2: human subject over the age of 65 with decreased expression): increased
- Serum level of GST following treatment ([1]; Example 3: human subject over the age of 65 having a cardiovascular disease): increased
- Serum level of GST following treatment ([1]; Example 4: human subject with decreased expression level): increased
- Serum level of GST following treatment ([1]; Example 5: decreased expression associated with a disease): increased
- Serum level of GST following treatment ([1]; Example 6: human subject at risk of developing or having a cancer): increased
- Serum level of GST following treatment ([1]; Example 7: human subject at risk of developing or having an autoimmune disease): increased
- Serum level of GST following treatment ([1]; Example 8: human subject, condition due to aging): increased
- Serum level of GST following treatment ([1]; Example 9: human subject at risk of developing or having a neurodegenerative disease): increased
- Serum level of GST following treatment ([1]; Example 10: human subject having an infection): increased
- Expression, Tempol-treated mice ([2]; Tempol 5 mg/g of food from 14 to 31 months after birth, microarray, control mice 195): 284
- Fold change ([2]; Tempol-treated vs control mice, P-value 0.006): 1.45
- Change in expression (in words) [2, 12]: statistically significant increase in expression
- Expression, Tempol-treated mice ([3]; Tempol 5 mg/g of food from 14 to 31 months after birth, microarray, control mice 416): 533
- Fold change [3, 13]: 1.28
- Change in expression (in words) [3, 12]: statistically significant increase in expression
- Expression, Tempol-treated mice ([4]; Tempol 5 mg/g of food from 14 to 31 months after birth, microarray, control mice 1140): 1325
- Fold change ([4]; Tempol-treated vs control mice, P-value 0.015): 1.16
- Change in expression (in words) [4, 12]: statistically significant increase in expression
- Expression, Tempol-treated mice ([5]; Tempol 5 mg/g of food from 14 to 31 months after birth, microarray, control mice 6291): 8548
- Fold change [5, 13]: 1.36
- Change in expression (in words) [5, 12]: statistically significant increase in expression
- Expression, Tempol-treated mice ([6]; Tempol 5 mg/g of food from 14 to 31 months after birth, microarray, control mice 446): 546
- Fold change ([6]; Tempol-treated vs control mice, P-value 0.035): 1.22
- Change in expression (in words) [6, 12]: statistically significant increase in expression
- Expression, Tempol-treated mice ([7]; Tempol 5 mg/g of food from 14 to 31 months after birth, microarray, control mice 668): 1183
- Fold change ([7]; Tempol-treated vs control mice, P-value 0.004): 1.77
- Change in expression (in words) [7, 12]: statistically significant increase in expression
- Expression, Tempol-treated mice ([8]; Tempol 5 mg/g of food from 14 to 31 months after birth, microarray, control mice 1017): 1619
- Fold change [8, 14]: 1.59
- Change in expression (in words) [8, 12]: statistically significant increase in expression
- Expression, Tempol-treated mice ([9]; Tempol 5 mg/g of food from 14 to 31 months after birth, microarray, control mice 147): 265
- Fold change ([9]; Tempol-treated vs control mice, P-value 0.034): 1.8
- Change in expression (in words) [9, 12]: statistically significant increase in expression
- Expression, Tempol-treated mice ([10]; Tempol 5 mg/g of food from 14 to 31 months after birth, microarray, control mice 5711): 6812
- Fold change ([10]; Tempol-treated vs control mice, P-value 0.005): 1.19
- Change in expression (in words) [10, 12]: statistically significant increase in expression
- Expression, Tempol-treated mice ([11]; Tempol 5 mg/g of food from 14 to 31 months after birth, microarray, control mice 10): 74
- Fold change [11, 14]: 7.52
- Change in expression (in words) [11, 12]: statistically significant increase in expression
